Assay results published in paper PMC3709815, “Reconstructing a Flavodoxin Oxidoreductase with Early Amino Acids” (International Journal of Molecular Sciences, 2013).
pKd: −log10 of the molar value.

Tests used:
Assay type in all cases: binding
[1] = target: T1, Megasphaera elsdenii flavodoxin (apoflavodoxin) (Megasphaera elsdenii, UniProt P00321); test: far-UV circular dichroism of apo- and holoflavodoxin, reconstitution with FMN; conditions: oxidized state; holoprotein reconstituted with 1.0 mM FMN, 40 mM sodium phosphate pH 7.0
T1 construct: synthetic gene in pET28b(+) NdeI/BamHI, 6xHis tag kept, E. coli BL21(DE3); apoprotein by trichloroacetic acid
T1 sequence (P00321 whole entry): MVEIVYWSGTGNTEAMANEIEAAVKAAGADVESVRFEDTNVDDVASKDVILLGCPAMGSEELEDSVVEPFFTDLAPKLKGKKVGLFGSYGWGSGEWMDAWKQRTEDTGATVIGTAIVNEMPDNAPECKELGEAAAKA

[2] = target: T2, Megasphaera elsdenii flavodoxin (apoflavodoxin) (Megasphaera elsdenii, UniProt P00321, C127V/C54A/F36V/F70L/F71L/F86V/M120V/M16L/M57V/M97L/W100V/W7V/W91V/W96V/Y6V/Y89V); test: fluorescence titration of FMN with apoflavodoxin (ex […] nm, em […] nm); conditions: read-out: Kd,ox
T2 construct: synthetic gene in pET28b(+) NdeI/BamHI, 6xHis tag kept, E. coli BL21(DE3); apoprotein by trichloroacetic acid
T2 sequence (P00321 other isoform, or with tags, fused parts or gaps with the stated changes): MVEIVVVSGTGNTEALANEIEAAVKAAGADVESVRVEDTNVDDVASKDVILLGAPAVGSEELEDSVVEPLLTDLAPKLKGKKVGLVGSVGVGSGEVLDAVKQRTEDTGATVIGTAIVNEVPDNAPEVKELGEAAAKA

[3] = target: T2, Megasphaera elsdenii flavodoxin (apoflavodoxin); test: calculated from Kd,ox and redox potential Em, […] (anaerobic dithionite titration with redox dyes); conditions: read-out: Kd,hq

SMILES: Cc1cc2nc3c(=O)[nH]c(=O)nc-3n(C[C@H](O)[C@H](O)[C@H](O)COP(=O)(O)O)c2cc1C [FMN]
- far-UV circular dichroism of apo- and holoflavodoxin, reconstitution with FMN [1]: conformation transition of mutant and wild-type protein induced by FMN binding is different
- pKd [2]: 5.53

SMILES: Cc1cc2c(cc1C)N(C[C@H](O)[C@H](O)[C@H](O)COP(=O)(O)O)c1[nH]c(=O)[nH]c(=O)c1N2 [FMNhq]
- pKd [3]: 1.36
